Experimental data reported in paper PMC9749938, “Alkyltriphenylphosphonium turns naphthoquinoneimidazoles into potent membrane depolarizers against mycobacteria” (RSC Medicinal Chemistry, 2022).
Converted amounts (≈) assume the structure as drawn. Where two headings read alike, the source gives them in different places.

How the values were obtained:
Vero E6 cells = assay: Cytotoxicity on Vero E6 cells; assay type: cell-based, African green monkey; settings: Chlorocebus sabaeus, Vero C1008; 48 h; reduces growth of Vero E6 by 50% vs untreated controls
M. bovis BCG [1] = assay: microbe, parasite or virus in culture; assay type: cell-based, Mycobacterium bovis BCG; settings: for MIC50 / MIC90 / IC50: Mycobacterium tuberculosis variant bovis BCG, BCG; for MIC50: read-out: M. bovis BCG MIC50, concentration reducing growth by 50% vs untreated controls; for M. bovis BCG MIC50: concentration reducing growth by 50% vs untreated controls; for M. bovis BCG MIC90: concentration reducing growth by 90% vs untreated controls; for IC50: read-out: M. bovis BCG MIC50
M. bovis BCG [2] = assay type: cell-based, Mycobacterium bovis BCG; settings: 0.5× to 2× MIC90, 1.5 h + 30 min dye
M. tb H37Rv = assay: MIC determination by broth dilution on M. tb H37Rv; assay type: cell-based; settings: Mycobacterium tuberculosis
[3] = Horseradish peroxidase-phenol red assay for H2O2 generation; assay type: biochemical; settings: in vitro, with DTT
M. bovis BCG [4] = assay type: cell-based, Mycobacterium bovis BCG; settings: 4× MIC90, up to 24 h
M. bovis BCG-piniBAC-RFP = assay type: cell-based, Mycobacterium bovis BCG; settings: 24 h, various concentrations
M. bovis BCG [5] = assay: microbe, parasite or virus in culture; assay type: cell-based; settings: Mycobacterium tuberculosis variant bovis BCG, 120 h
M. bovis BCG [6] = assay type: cell-based, Mycobacterium bovis BCG
[7] = Aqueous solubility (Multiscreen solubility filter plates); assay type: physicochemical; settings: pH 7.4, 24 h agitation
M. bovis BCG [8] = assay type: cell-based, Mycobacterium bovis BCG; settings: 4× MIC90, after 24 hours
M. bovis BCG [9] = assay type: cell-based, Mycobacterium bovis BCG; settings: 4× MIC90, time course to 24 h and after
M. bovis BCG-pfurA-RFP = assay type: cell-based, Mycobacterium bovis BCG; settings: 24 h, 37 °C
M. bovis BCG [10] = assay type: cell-based, Mycobacterium bovis BCG; settings: 4× MIC90, up to 24 h; remark: listed apart in the source
[11] = test system: inverted membrane vesicles of wild-type M. smegmatis mc^24517; assay: NADH oxidation in inverted membrane vesicles, WT; assay type: biochemical; settings: for EC50: WT M. smegmatis mc^24517, read-out: EC50 of activation of NADH oxidation, WT IMV
[12] = read-out: M. bovis BCG MIC90, concentration reducing growth by 90% vs untreated controls, broth dilution
[13] = Universal buffer with 1% DMSO, pH 7.4, 25 °C
[14] = read-out: MIC90 of control compounds (Fig. 4 legend), controls of redox assays, organism not restated

| Structure (SMILES) | IC50 (Vero E6 cells) | MIC50 (M. bovis BCG [1]; broth dilution) | MIC90 (M. bovis BCG [1]; [12]) | M. bovis BCG MIC50 (M. bovis BCG [1]; broth dilution) | further results |
| --- | --- | --- | --- | --- | --- |
| Cc1nc2c(n1CCC[P+](c1ccccc1)(c1ccccc1)c1ccccc1)C(=O)c1ccccc1C2=O.[I-] [Compound 3] | > 400 µM | 4 µM | 5.6 µM | 4.0 (4.0, 4.0) μM |  |
| Cc1nc2c(n1CCCCC[P+](c1ccccc1)(c1ccccc1)c1ccccc1)C(=O)c1ccccc1C2=O.[I-] [Compound 4] | > 400 µM | 2.4 µM | 4.6 µM |  | M. bovis BCG MIC90 (M. bovis BCG [1]; broth dilution): 4.6 (4.6, 4.6) μM |
| Cc1nc2c(n1CCCCCCC[P+](c1ccccc1)(c1ccccc1)c1ccccc1)C(=O)c1ccccc1C2=O.[I-] [Compound 5] | 48.4 µM | 1.2 µM | 2.3 µM | 1.2 (1.2, 1.2) μM |  |
| Cc1nc2c(n1CCCCCCCCC[P+](c1ccccc1)(c1ccccc1)c1ccccc1)C(=O)c1ccccc1C2=O.[I-] [Compound 6] | 12.4 µM | 0.59 µM | 1 µM | 0.58 (0.6, 0.59) μM | ROS formation in cultures (CellROX Green) (M. bovis BCG [2]): negligible levels of ROS; MIC50 (M. tb H37Rv): 0.37 µM; MIC90 (M. tb H37Rv): 0.8 µM; H2O2 generation, HRP-phenol red assay [3]: negligible H2O2 generation; Membrane permeabilization (SYTO9/PI green/red ratio) (M. bovis BCG [4]): not accompanied by membrane permeabilization; Induction of piniBAC promoter (RFP fluorescence) (M. bovis BCG-piniBAC-RFP): no increase in fluorescence; MBC (M. bovis BCG [5]; read-out: M. bovis BCG MBC90): 1.6 µM; MBC (M. bovis BCG [5]; read-out: M. bovis BCG MBC99): 3.1 µM; MBC (M. bovis BCG [5]; read-out: M. bovis BCG MBC99.9): 6.2 µM; Time-kill: CFU over 21 days (M. bovis BCG [6]): steady decrease of CFU up to day 8; solubility at 24 h ([7]; 25 °C): 105.8 µM; solubility at 24 h [7, 13]: 106 µM; CFU count of treated cultures (M. bovis BCG [8]): remained relatively constant; Intracellular ATP levels (M. bovis BCG [9]): initial drop in ATP levels; Induction of pfurA promoter (RFP fluorescence) (M. bovis BCG-pfurA-RFP): not observed; Membrane potential (DiOC2(3) red/green ratio) (M. bovis BCG [10]): rapid and sustained loss of membrane potential |
| Cc1nc2c(n1CCCCCCCCCCC[P+](c1ccccc1)(c1ccccc1)c1ccccc1)C(=O)c1ccccc1C2=O.[I-] [Compound 7] | 5.6 µM | 0.5 µM | ≤ 1 µM |  | ROS formation in cultures (CellROX Green) (M. bovis BCG [2]): negligible levels of ROS; MIC50 (M. tb H37Rv): 1.15 µM; MIC90 (M. tb H37Rv): 1.8 µM; H2O2 generation, HRP-phenol red assay [3]: negligible H2O2 generation; Membrane permeabilization (SYTO9/PI green/red ratio) (M. bovis BCG [4]): not accompanied by membrane permeabilization; Induction of piniBAC promoter (RFP fluorescence) (M. bovis BCG-piniBAC-RFP): no increase in fluorescence; MBC (M. bovis BCG [5]; read-out: M. bovis BCG MBC90): 1.6 µM; MBC (M. bovis BCG [5]; read-out: M. bovis BCG MBC99): 3.1 µM; MBC (M. bovis BCG [5]; read-out: M. bovis BCG MBC99.9): 6.2 µM; solubility at 24 h [7, 13]: 27 µM; CFU count of treated cultures (M. bovis BCG [8]): remained relatively constant; Activation of NADH oxidation, WT IMV ([11]; WT M. smegmatis): negligible activation of NADH oxidation; Intracellular ATP levels (M. bovis BCG [9]): initial drop in ATP levels; Induction of pfurA promoter (RFP fluorescence) (M. bovis BCG-pfurA-RFP): not observed; Membrane potential (DiOC2(3) red/green ratio) (M. bovis BCG [10]): rapid and sustained loss of membrane potential; IC50 (M. bovis BCG [1]): 0.55 µM |
| CCCCCCC[P+](c1ccccc1)(c1ccccc1)c1ccccc1.[I-] [Compound 8] |  | 5.5 µM | 10.5 µM |  | Membrane potential (DiOC2(3) red/green ratio) (M. bovis BCG [10]): behaved similarly to 6 and 7; M. bovis BCG MIC90 (M. bovis BCG [1]; broth dilution): 10.5 (10.2, 10.8) μM |
| CCCCCCCCCCC[P+](c1ccccc1)(c1ccccc1)c1ccccc1.[I-] [Compound 9] |  | 2.1 µM | 2.8 µM |  | Membrane potential (DiOC2(3) red/green ratio) (M. bovis BCG [10]): behaved similarly to 6 and 7 |
| Cc1nc2ccccc2n1CCCCCCC[P+](c1ccccc1)(c1ccccc1)c1ccccc1.[I-] [Compound 10] | 86.4 µM | 3.8 µM | 5.6 µM | 3.8 (3.8, 3.8) μM |  |
| Cc1nc2ccccc2n1CCCCCCCCCCC[P+](c1ccccc1)(c1ccccc1)c1ccccc1.[I-] [Compound 11] | 11.5 µM | 0.9 µM | 1.4 µM |  | M. bovis BCG MIC90 (M. bovis BCG [1]; broth dilution): 1.4 (1.4, 1.4) μM |
| Cc1cc(=O)n(CCCCCCC[P+](c2ccccc2)(c2ccccc2)c2ccccc2)c2c1C(=O)c1ccccc1C2=O.[I-] [Compound 12] | 5.9 µM | 1 µM | 1.4 µM |  | M. bovis BCG MIC90 (M. bovis BCG [1]; broth dilution): 1.4 (1.4, 1.4) μM |
| Cc1cc(=O)n(CCCCCCCCCCC[P+](c2ccccc2)(c2ccccc2)c2ccccc2)c2c1C(=O)c1ccccc1C2=O [Compound 13] | 2.1 µM | 3.8 µM | 5.7 µM |  |  |
| O=C1c2ccccc2C(=O)c2c1nc(C(F)(F)F)n2CCCCCCCCCCC[P+](c1ccccc1)(c1ccccc1)c1ccccc1 [Compound 14] | 5.6 µM | 1.8 µM | 2.8 µM |  |  |
| Cc1nc2c(n1CCCCCCCCCCC[P+](c1ccccc1)(c1ccccc1)c1ccccc1)C(=O)c1cccnc1C2=O [Compound 15] | 5.4 µM | 0.65 µM | 1.2 µM |  | IC50 (M. bovis BCG [1]): 0.6 µM |
| Cc1nc2c(n1CCCCCCC[n+]1ccccc1)C(=O)c1ccccc1C2=O.[I-] [Compound 16] |  | 28.7 µM | 48.5 µM | 28.7 (32.5, 25.0) μM | M. bovis BCG MIC90 (M. bovis BCG [1]; broth dilution): 48.5 (48.0, 49.0) μM |
| Cc1nc2c(n1CCCCCCC[P+](C1CCCCC1)(C1CCCCC1)C1CCCCC1)C(=O)c1ccccc1C2=O.[I-] [Compound 17] | 24.4 µM | 1.3 µM | 2.5 µM | 1.3 (1.3, 1.3) μM |  |
| Cc1nc2c(n1CCCCCCCCCCC[P+](C1CCCCC1)(C1CCCCC1)C1CCCCC1)C(=O)c1ccccc1C2=O.[I-] [Compound 18] | 4.1 µM | 0.6 µM | 0.9 µM | 0.6 (0.6, 0.6) μM |  |
| CCCCCC[P+](CCCCCC)(CCCCCC)CCCCCCCn1c(C)nc2c1C(=O)c1ccccc1C2=O.[I-] [Compound 19] | 5.2 µM | 0.7 µM | 1.4 µM | 0.7 (0.7, 0.7) μM | M. bovis BCG MIC90 (M. bovis BCG [1]; broth dilution): 1.4 (1.4, 1.4) μM |
| CCCCn1c2c([n+](C3CCC4(CCCCC4)CC3)c1C)C(=O)c1ccccc1C2=O.[Br-] [Compound 44, reference compound] |  |  |  |  | ROS formation in cultures (CellROX Green) (M. bovis BCG [2]): dose-dependent ROS formation; EC50 [11]: 0.76 µM; Induction of pfurA promoter (RFP fluorescence) (M. bovis BCG-pfurA-RFP): discernible dose-dependent increase in the fluorescence signal; MIC90 (M. bovis BCG [1]; [14]): 0.32 µM |
| CCCCCCCCn1c2c([n+](CCCC)c1C)C(=O)c1ccccc1C2=O.[Br-] [Compound 45, reference compound] |  |  |  |  | ROS formation in cultures (CellROX Green) (M. bovis BCG [2]): dose-dependent ROS formation; EC50 [11]: 0.2 µM; Induction of pfurA promoter (RFP fluorescence) (M. bovis BCG-pfurA-RFP): discernible dose-dependent increase in the fluorescence signal; MIC90 (M. bovis BCG [1]; [14]): 0.32 µM |
| NNC(=O)c1ccncc1 [INH, isoniazid, reference compound] |  |  |  |  | Induction of piniBAC promoter (RFP fluorescence) (M. bovis BCG-piniBAC-RFP): increased piniBAC promoter activity; Time-kill: CFU over 21 days (M. bovis BCG [6]): rapid decrease in CFU in the first two time points; MIC90 (M. bovis BCG [1]; [14]): 3.7 µM (≈ 0.507 µg/mL) |
| O=C1C=CC(=O)c2ccccc21 [NQ, 1,4-Naphthoquinone, reference compound] |  |  |  |  | MIC90 (M. bovis BCG [1]; [14]): 100 µM (≈ 15.8 µg/mL) |
